Results taken from patent US20260248820A1, “USES OF HYDROGENATED CANNABIDIOL (H4CBD) AND ADVANCED METABOLIC SYNDROME” (The Regents of the University of California, priority 2022, published 2026).

Tests used:
[1] = test system: proteins involved in insulin signaling (soleus); experiment: Western blot of soleus insulin signaling proteins; format: in vivo, rat
Source text: Western Blot—Soleus was used to measure proteins involved in insulin signaling. Densitometry values were quantified using ImageJ software (NIH) and normalized by correcting for densitometry values of representative protein bands below 37 kDa stained with Ponceau S. Results are reported as expression (%) compared to LETO.

[2] = test system: Otsuka Long-Evans Tokushima Fatty (OLETF) rat; experiment: Urinalysis (urine volume, total protein, creatinine, 3-methylhistidine); format: in vivo
Description: Body Mass (BM), Water, and Food Intake—BM was measured daily to calculate the appropriate drug and vehicle dose. Water, urine and food were measured once every 24 hours throughout the study.
Urinalysis—Urine was collected and thawed on ice to measure 3-methylhistidine (3MH; Abbexa; 257295) and creatinine (Invitrogen; EIACUN). Excretion was calculated for both by multiplying the 24-hr urine volume by the measured concentration (U×V=V*[x]), where x=creatinine or 3MH.

## CCCCCc1cc(O)c(C2CC(C)CCC2C(C)C)c(O)c1 (stereo not shown) [H4CBD, 2-(2-isopropyl-5-methylcyclohexyl)-5-pentylbenzene-1,3-diol]
[1]; membrane fraction of skeletal muscle
  Translocated (membrane) GLUT4: no changes
[1]; soleus
  AMPK expression: No changes were detected
  Ratio of membrane to cytosolic GLUT4: unchanged among the groups
  Reduction of PI3K expression compared to OLETF: 47%
  pAMPK expression: No changes were detected
  pAMPK/AMPK expression: No changes were detected
  pIR/IR: not changed
[1]; soleus protein expression
  Phosphorylation of the insulin receptor (pIR): No changes were detected
[1]; soleus, cytosolic, p<0.05
  Reduction of Akt expression compared to OLETF: 32%
  Reduction of pAkt expression compared to OLETF: 58%
[1]; soleus, p<0.01
  Reduction of pAkt:Akt ratio compared to OLETF: 35%
[1]; soleus, p<0.05
  Increase of native insulin receptor (IR) expression over OLETF: 54%
[1]; soleus, tended, p=0.06
  Cytosolic GLUT4 higher than OLETF: 58%
[2]; 24-hour urine
  Urine excretion compared to vehicle control, first week: reduced
[2]; 24-hour urine, persisted through the remainder of the study
  Urine excretion volume compared to OLETF control, remainder of study: increased above OLETF control by Day 11
[2]; Day 0 vs Day 28
  Increase of 3MH excretion pre- vs. post-treatment: 9%
[2]; after 4 weeks
  3MH excretion less than OLETF control: 17%
  Reduction of creatinine excretion compared to OLETF control: 42%
[2]; after 4 weeks of treatment vs Day 0, non-significant
  Increase of creatinine excretion within H4CBD-treated group: 10%
[2]; post-treatment (Day 28), p=0.07
  3MH/Cr higher than OLETF control: 77%
[2]; total urinary protein excretion after 4 weeks
  Reduction of proteinuria compared to OLETF control: 25%
[2]; within H4CBD treated OLETF, muscle wasting index
  Increase of 3MH/Cr after 4 weeks: 4%
